Active and inactive are the calls of the source. The rule behind the calls is not given here.
Key:
Bone marrow cell [1] = test: Cytotoxicity against GM-CSF-cultured mouse cDC-rich bone marrow cells assessed as cell viability at 1 to 10 uM incubated for 24 hrs by MTT assay; type: cell-based
Bone marrow cell [2] = test: Cytotoxicity against Flt3L-cultured mouse pDC-rich bone marrow cells assessed as cell viability at 1 to 10 uM incubated for 24 hrs by MTT assay; type: cell-based
Bone marrow cell [3] = test: Cytotoxicity against M-CSF-cultured mouse macrophage-rich bone marrow cells assessed as cell viability at 1 to 10 uM incubated for 24 hrs by MTT assay; type: cell-based
Dendritic cell [4] = test: Immunostimulatory activity in GM-CSF-cultured bone marrow-derived dendritic cells isolated from get40 cytokine reporter mouse model assessed as induction of IL12p40 production at 0.1 to 10 uM incubated for 16 hrs in presence of CpG 2216 by flow cytometry relative to control; type: functional
Dendritic cell [5] = test: Immunostimulatory activity in GM-CSF-cultured bone marrow-derived dendritic cells isolated from get40 cytokine reporter mouse model assessed as induction of IL12p40 production at 0.1 to 10 uM incubated for 16 hrs by flow cytometry relative to control; type: functional
Mus musculus [6] = species on record: Mus musculus; test: (§1) Immunostimulatory activity in CD4-positive T cells isolated from OVA-specific OT-II TCR transgenic mouse model assessed as T cell activation by measuring increase in IL-2 production at 1 uM compound incubated with GM-CSF cultured mouse bone marrow cells in presence of CpG 2216 for 24 hrs followed by addition of isolated CD4+ T cells and further incubation for 5 days by ELISA; type: functional, cell-based
Dendritic cell [7] = test: Immunostimulatory activity in GM-CSF-cultured bone marrow-derived dendritic cells isolated from get40 cytokine reporter mouse model assessed as induction of IL12p40 production at 0.1 to 10 uM incubated for 16 hrs in presence of LPS by flow cytometry relative to control; type: functional
Jurkat = test: Cytotoxicity against human Jurkat cells; type: functional, cell-based
Ramos = test: Cytotoxicity against human Ramos cells; type: functional, cell-based
Mus musculus [8] = species on record: Mus musculus; test: as §1, with “10” for “1”, “cells” for “cells in presence of CpG 2216”; type: functional, cell-based
[9] = system: Mycobacterium tuberculosis; test: Antibacterial activity against Mycobacterium tuberculosis; type: functional, organism-based

For `C=C1[C@@H](C)[C@H]2[C@H](Cc3ccccc3)NC(=O)[C@]23[C@H](OC(C)=O)/C=C/[C@@H](C)C[C@@H](C)C/C=C/[C@H]3[C@@H]1O`, the Activity (Bone marrow cell [1]) was “Non-Toxic”, the Activity (Bone marrow cell [2]) was “Non-Toxic” and the Activity (Bone marrow cell [3]) was “Non-Toxic”. The “fold change (FC)” value (Dendritic cell [4]) was 2, the “fold change (FC)” value (Dendritic cell [5]) was 2 and the Activity (Mus musculus [6]) was “Active”. For the same compound, the “fold change (FC)” value (Dendritic cell [7]) was 2, the Activity (Jurkat) was “Active” and the Activity (Ramos) was “Active”.
For `[O-][n+]1ccc2c([nH]c3ccccc32)c1C1=C[C@@]2(O)CC/C=C\CCCCN3CC[C@@H]1[C@]1(CC/C=C\CCCCN[C@H]12)C3`, the Activity (Bone marrow cell [1]) was “Non-Toxic”, the Activity (Bone marrow cell [2]) was “Non-Toxic” and the Activity (Bone marrow cell [3]) was “Non-Toxic”. For the same compound, the “fold change (FC)” value (Dendritic cell [4]) was 2, the “fold change (FC)” value (Dendritic cell [5]) was 2 and the Activity (Mus musculus [8]) was “inactive”. For the same compound, the “fold change (FC)” value (Dendritic cell [7]) was 2, the Activity (Jurkat) was “Active” and the Activity (Ramos) was “Active”. For the same compound, the Activity [9] was “Active”.
For `C=C1[C@@H](C)[C@H]2[C@H](Cc3ccccc3)NC(=O)[C@]23[C@H](OC(C)=O)/C=C/[C@@](C)(O)C(=O)[C@@H](C)C/C=C/[C@H]3[C@@H]1O` [CYTOCHALASIN D], the Activity (Bone marrow cell [1]) was “Non-Toxic”, the Activity (Bone marrow cell [2]) was “Non-Toxic” and the Activity (Bone marrow cell [3]) was “Non-Toxic”. The “fold change (FC)” value (Dendritic cell [4]) was 2, the “fold change (FC)” value (Dendritic cell [5]) was 2 and the Activity (Mus musculus [6]) was “Active”. For the same compound, the “fold change (FC)” value (Dendritic cell [7]) was 2, the Activity (Jurkat) was “Active” and the Activity (Ramos) was “Active”.
